# Laboratory results: patent EP2929883A1, “Pyrazole derivatives as dihydroorotate dehydrogenase (DHODH) inhibitors” (INSTITUT PASTEUR, priority 2014, dated 2015)
# Tested on: measles virus
# Test: microbe, parasite or virus in culture
# Details: Measles morbillivirus, 24 h
row,SMILES,MIC50 [µM]
1,"CCc1cnc(-n2nc(OC(C)C)c(Oc3c(F)cccc3F)c2C)nc1O [example 117, 2-(4-(2,6-difluorophenoxy)-3-isopropoxy-5-methyl-1H-pyrazol-1-yl)-5-ethylpyrimidin-4-ol]",0.0005 to 0.05
2,"CC(C)Oc1nn(-c2ccc(C3CC3)cn2)cc1C(O)c1ccccc1 (stereo not drawn) [example 179, (1-(5-cyclopropylpyridin-2-yl)-3-isopropoxy-1H-pyrazol-4-yl)(phenyl)methanol]",0.05 to 0.5
3,"Cc1c(Cc2ccccc2F)c(OC(C)C)nn1-c1ccc(C2CC2)cn1 [example 90, 5-cyclopropyl-2-(4-(2-fluorobenzyl)-3-isopropoxy-5-methyl-1H-pyrazol-1-yl)pyridine]",0.05 to 0.5
4,"CCOc1nn(-c2ccc(C3CC3)cn2)c(C)c1Oc1cc(Cl)cc(Cl)c1 [example 96, 5-cyclopropyl-2-(4-(3,5-dichlorophenoxy)-3-ethoxy-5-methyl-1H-pyrazol-1-yl)pyridine]",0.05 to 0.5
5,"Cc1c(Oc2c(F)cccc2F)c(OC(C)C)nn1-c1cnc(C2CC2)cn1 [example 45, 2-cyclopropyl-5-(4-(2,6-difluorophenoxy)-3-isopropoxy-5-methyl-1H-pyrazol-1-yl)pyrazine]",0.0005 to 0.05
6,"CCCc1cnc(-n2nc(OCC)c(Cc3ccccc3)c2C)nc1 [example 27, 2-(4-benzyl-3-ethoxy-5-methyl-1H-pyrazol-1-yl)-5-propylpyrimidine]",0.0005 to 0.05
7,"CCOc1nn(-c2ccccn2)cc1-c1ccc(Cl)cc1 [example 157, 2-(4-(4-chlorophenyl)-3-ethoxy-1H-pyrazol-1-yl)pyridine]",> 5
8,"CCOc1nn(-c2ccc(C)cn2)c(C)c1Oc1ccccc1 [example 127, 2-(3-ethoxy-5-methyl-4-phenoxy-1H-pyrazol-1-yl)-5-methylpyridine]",0.5 to 5
9,"CCOc1nn(-c2ncccn2)c(C)c1Cc1ccccc1 [example 123, 2-(4-benzyl-3-ethoxy-5-methyl-1H-pyrazol-1-yl)pyrimidine]",0.5 to 5
10,"Cc1c(Oc2cccnc2)c(OC(C)C)nn1-c1ncc(C2CC2)cn1 [example 110, 5-cyclopropyl-2-(3-isopropoxy-5-methyl-4-(pyridin-3-yloxy)-1H-pyrazol-1-yl)pyrimidine]",0.5 to 5
11,"COCc1c(Cc2ccccc2)c(OC(C)C)nn1-c1ncc(C2CC2)cn1 [example 168, 2-(4-benzyl-3-isopropoxy-5-(methoxymethyl)-1H-pyrazol-1-yl)-5-cyclopropylpyrimidine]",0.05 to 0.5
12,"CCOc1nn(-c2ccc(C3CC3)cn2)c(C)c1Oc1ccccc1 [example 92, 5-cyclopropyl-2-(3-ethoxy-5-methyl-4-phenoxy-1H-pyrazol-1-yl)pyridine]",0.05 to 0.5
13,"CCOc1ccc(-n2nc(OC(C)C)c(Oc3c(F)cccc3F)c2C)nn1 [example 174A, 3-(4-(2,6-difluorophenoxy)-3-isopropoxy-5-methyl-1H-pyrazol-1-yl)-6-ethoxypyridazine]",0.05 to 0.5
14,"Cc1cnc(-n2nc(OC(C)C)c(Oc3c(F)cccc3F)c2C)nc1O [example 116, 2-(4-(2,6-difluorophenoxy)-3-isopropoxy-5-methyl-1H-pyrazol-1-yl)-5-methylpyrimidin-4-ol]",0.05 to 0.5
15,"CCCCc1c(OCC)nn(-c2ncc(CC)cn2)c1C [example 114, 2-(4-butyl-3-ethoxy-5-methyl-1H-pyrazol-1-yl)-5-ethylpyrimidine]",0.5 to 5
16,"CCc1cnc(-n2nc(OCCOCc3ccccc3)c(Cc3ccccc3)c2C)nc1 [example 103, 2-(4-benzyl-3-(2-(benzyloxy)ethoxy)-5-methyl-1H-pyrazol-1-yl)-5-ethylpyrimidine]",0.0005 to 0.05
17,"CCc1cnc(-n2nc(OC(C)C)c(Oc3c(F)cccc3F)c2C)c(F)c1 [example 5A, 2-(4-(2,6-difluorophenoxy)-3-isopropoxy-5-methyl-1H-pyrazol-1-yl)-5-ethyl-3-fluoropyridine]",0.05 to 0.5
18,"Cc1c(Cc2ccccc2)c(OC(C)C)nn1-c1ncccc1C#N [example 89, 2-(4-benzyl-3-isopropoxy-5-methyl-1H-pyrazol-1-yl)nicotinonitrile]",0.5 to 5
19,"CCOc1nn(-c2ncc(Br)cn2)c(C)c1Cc1ccccc1 [example 42, 2-(4-benzyl-3-ethoxy-5-methyl-1H-pyrazol-1-yl)-5-bromopyrimidine]",0.05 to 0.5
20,"Cc1ccc(-n2nc(OC(C)C)c(Oc3c(F)cccc3F)c2C)nn1 [example 12, 3-(4-(2,6-difluorophenoxy)-3-isopropoxy-5-methyl-1H-pyrazol-1-yl)-6-methylpyridazine]",0.0005 to 0.05
21,"CCOc1nn(-c2ccc(C3CC3)cn2)c(C)c1Oc1ccccc1C(F)(F)F [example 56, 5-cyclopropyl-2-(3-ethoxy-5-methyl-4-(2-(trifluoromethyl)phenoxy)-1H-pyrazol-1-yl)pyridine]",0.05 to 0.5
22,"CCOc1nn(-c2ccc(C3CC3)cn2)c(C)c1C(=O)c1ccccc1 [example 151, (1-(5-cyclopropylpyridin-2-yl)-3-ethoxy-5-methyl-1H-pyrazol-4-yl)(phenyl)methanone]",0.05 to 0.5
23,"CC(C)Oc1nn(-c2ccc(C3CC3)cn2)cc1Oc1ccccc1 [example 71, 5-cyclopropyl-2-(3-isopropoxy-4-phenoxy-1H-pyrazol-1-yl)pyridine]",0.05 to 0.5

row,SMILES,MIC50 [µM]
1,"Cc1c(Oc2ccccc2F)c(OC(C)C)nn1-c1ncc(C2CC2)cc1F [example 53, 5-cyclopropyl-3-fluoro-2-(4-(2-fluorophenoxy)-3-isopropoxy-5-methyl-1H-pyrazol-1-yl)pyridine]",0.05 to 0.5
2,"CC(C)Oc1nn(-c2ccc(C3CC3)cn2)cc1[S+]([O-])c1ccccc1 (stereo not drawn) [example 181, 5-cyclopropyl-2-(3-isopropoxy-4-(phenylsulfinyl)-1H-pyrazol-1-yl)pyridine]",0.5 to 5
3,"CCc1cnc(-n2nc(OC(C)C)c(Cc3ccccc3F)c2C)nc1 [example 23, 5-ethyl-2-(4-(2-fluorobenzyl)-3-isopropoxy-5-methyl-1H-pyrazol-1-yl)pyrimidine]",0.0005 to 0.05
4,"Cc1c(Oc2c(F)cccc2F)c(OC(C)C)nn1-c1cnc(Br)cn1 [example 48, 2-bromo-5-(4-(2,6-difluorophenoxy)-3-isopropoxy-5-methyl-1H-pyrazol-1-yl)pyrazine]",0.5 to 5
5,"Cc1c(Oc2cc(F)ccc2F)c(OC(C)C)nn1-c1ccc(C2CC2)cn1 [example 18, 5-cyclopropyl-2-(4-(2,5-difluorophenoxy)-3-isopropoxy-5-methyl-1H-pyrazol-1-yl)pyridine]",0.0005 to 0.05
6,"CCCc1cnc(-n2nc(OC(C)C)c(Oc3c(F)cccc3F)c2C)c(F)c1 [example 190A, 2-(4-(2,6-difluorophenoxy)-3-isopropoxy-5-methyl-1H-pyrazol-1-yl)-3-fluoro-5-propylpyridine]",0.05 to 0.5
7,"Cc1c(Cc2ccccc2)c(OC(C)C)nn1-c1ccccn1 [example 165, 2-(4-benzyl-3-isopropoxy-5-methyl-1H-pyrazol-1-yl)pyridine]",> 5
8,"CCc1cnc(-n2nc(OC(C)C)c(Oc3cccc(F)c3F)c2C)nc1 [example 77, 2-(4-(2,3-difluorophenoxy)-3-isopropoxy-5-methyl-1H-pyrazol-1-yl)-5-ethylpyrimidine]",0.05 to 0.5
9,"Cc1c(Oc2ccccc2F)c(OC(C)C)nn1-c1ncc(C2CC2)cn1 [example 51, 5-cyclopropyl-2-(4-(2-fluorophenoxy)-3-isopropoxy-5-methyl-1H-pyrazol-1-yl)pyrimidine]",0.0005 to 0.05
10,"COc1ccc(-n2nc(OC(C)C)c(Oc3c(F)cccc3F)c2C)nn1 [example 174, 3-(4-(2,6-difluorophenoxy)-3-isopropoxy-5-methyl-1H-pyrazol-1-yl)-6-methoxypyridazine]",0.05 to 0.5
11,"CCc1cnc(-n2nc(OC(C)C)c(Cc3cccc(OC)c3)c2C)nc1 [example 102, 5-ethyl-2-(3-isopropoxy-4-(3-methoxybenzyl)-5-methyl-1H-pyrazol-1-yl)pyrimidine]",0.0005 to 0.05
12,"CCOc1nn(-c2ccccc2)c(C)c1Cc1ccccc1 [example 134, 4-benzyl-3-ethoxy-5-methyl-1-phenyl-1H-pyrazole]",0.5 to 5
13,"CCc1cnc(-n2nc(OC(C)C)c(Oc3cccc(F)c3)c2C)nc1 [example 54, 5-ethyl-2-(4-(3-fluorophenoxy)-3-isopropoxy-5-methyl-1H-pyrazol-1-yl)pyrimidine]",0.05 to 0.5
14,"CCOc1nn(-c2ccccn2)c(C)c1Cc1ccccc1Cl [example 162, 2-(4-(2-chlorobenzyl)-3-ethoxy-5-methyl-1H-pyrazol-1-yl)pyridine]",> 5
15,"CCOc1nn(-c2ccccn2)c(C)c1-c1cccc(C(F)(F)F)c1 [example 158, 2-(3-ethoxy-5-methyl-4-(3-(trifluoromethyl)phenyl)-1H-pyrazol-1-yl)pyridine]",> 5
16,"CCOc1nn(-c2ncc(CC)cn2)c(C)c1Oc1ccccc1 [example 72, 2-(3-ethoxy-5-methyl-4-phenoxy-1H-pyrazol-1-yl)-5-ethylpyrimidine]",0.5 to 5
17,"CCOc1nn(-c2ncc(CC)cn2)c(C)c1Oc1ccccc1C(F)(F)F [example 82, 2-(3-ethoxy-5-methyl-4-(2-(trifluoromethyl)phenoxy)-1H-pyrazol-1-yl)-5-ethylpyrimidine]",0.5 to 5
18,"CCOc1nn(-c2cc(C)ccn2)c(C)c1Cc1ccccc1 [example 32, 2-(4-benzyl-3-ethoxy-5-methyl-1H-pyrazol-1-yl)-4-methylpyridine]",0.5 to 5
19,"CCOc1nn(-c2ccc(C3CC3)cn2)c(C)c1Oc1cc(Cl)ccc1Cl [example 95, 5-cyclopropyl-2-(4-(2,5-dichlorophenoxy)-3-ethoxy-5-methyl-1H-pyrazol-1-yl)pyridine]",0.05 to 0.5
20,"CCc1ccc(-n2nc(OC(C)C)c(Oc3c(F)cccc3F)c2C)cn1 [example 129, 5-(4-(2,6-difluorophenoxy)-3-isopropoxy-5-methyl-1H-pyrazol-1-yl)-2-ethylpyridine]",0.0005 to 0.05
21,"CC(C)Oc1nn(-c2ccc(C3CC3)cn2)cc1C(=O)c1ccccc1 [example 109, (1-(5-cyclopropylpyridin-2-yl)-3-isopropoxy-1H-pyrazol-4-yl)(phenyl)methanone]",0.5 to 5
22,"COc1ccc(-n2nc(OC(C)C)c(Oc3c(F)cccc3F)c2C)nc1 [example 126, 2-(4-(2,6-difluorophenoxy)-3-isopropoxy-5-methyl-1H-pyrazol-1-yl)-5-methoxypyridine]",0.05 to 0.5
